Results on five compounds are retold here after patent US4439619A, “Fluorinated pentene diamine derivatives” (Merrell Toraude et Compagnie, priority 1980, dated 1984).

Data set [1] concerns EMT6 solid tumors. Nature of the data set: Anti-neoplastic effect in mice inoculated with EMT6 solid sarcoma. It counts as in vivo. An excerpt:
(§1) When tested in mice against L 1210 leukemia and EMT6 solid tumors, -fluoromethyl-trans-dehydroputrescine (MFMDP) gave the following results:
2% MFMDP in water as sole drinking fluid starting 4 days after inoculation of the cells, inhibited by 60% to 70% the growth of the tumor at day 17. When given at 0.2% in water, it inhibited by 25% tumor growth.

The target in data set [2] is T1, Ornithine decarboxylase (ODC) (Rattus norvegicus, UniProt P09057).
T1 construct: prepared from the livers of rats which have been injected with thioacetamide; from tissue; host or cells: rat liver (thioacetamide-injected rats), purified about ten fold by acid treatment at pH 4.6
T1 sequence (P09057 1-461): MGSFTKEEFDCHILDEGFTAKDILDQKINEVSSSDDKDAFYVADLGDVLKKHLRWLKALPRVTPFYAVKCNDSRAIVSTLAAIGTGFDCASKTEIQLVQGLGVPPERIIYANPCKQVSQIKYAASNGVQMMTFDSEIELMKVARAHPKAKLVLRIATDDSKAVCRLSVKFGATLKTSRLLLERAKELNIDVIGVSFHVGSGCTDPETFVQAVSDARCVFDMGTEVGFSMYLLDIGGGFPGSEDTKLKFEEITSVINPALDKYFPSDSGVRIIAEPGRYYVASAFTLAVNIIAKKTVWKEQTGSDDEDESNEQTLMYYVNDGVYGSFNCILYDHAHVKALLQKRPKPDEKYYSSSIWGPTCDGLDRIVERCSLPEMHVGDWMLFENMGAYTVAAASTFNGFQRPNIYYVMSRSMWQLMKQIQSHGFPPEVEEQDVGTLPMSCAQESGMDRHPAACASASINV
Nature of the data set: Inhibition of ornithine decarboxylase (ODC) in vitro (partially purified ODC from rat liver, 14CO2 assay, Kitz and Wilson). It counts as biochemical, rats. More on the design: Half-life (t1/2): dose or concentration left out as unconfirmed. The note with it: for τ50 (half-life, at infinite concentration of inhibitor) / Ki: 37°, Kitz and Wilson; for Ki: time-dependent inhibition, read-out: KI (apparent dissociation constant). The method, then: Ornithine decarboxylase (ODC) is prepared from the livers of rats which have been injected with thioacetamide (150 mg/kg of body weight) 18 hrs before sacrifice, and is purified about ten fold by acid treatment at pH 4.6 as described by Ono et al. (Biochem. Biophys. Acta 284, 285 (1972)). The stock solution of ODC is comprised of protein (16 mg/mL), sodium phosphate buffer (30 mM, pH 7.1), dithiothreitol (5 mM) and pyridoxal phosphate (0.1 mM). The specific activity of this stock solution is 0.12 nmol of CO2 /min per mg of protein. For a typical experiment 320 μl of this stock solution are mixed at time 0 with 80 μl of a solution of the inhibitor in water and incubated at 37°. At different times 50 μl aliquots are transferred into a 1-mL assay medium containing sodium phosphate (30 mM, pH 7.1), dithiothreitol (5 mM), pyridoxal phosphate (0.1 mM), L-ornithine ([…]), and DL-[1-^14 C] ornithine ([…], 58 Ci/mol, Amersham) in a closed vessel in which a filter paper moistered with 50 μl hyamine hydroxide (1 M) is fitted. The reaction is allowed to proceed for 60 min at 37° C. and then terminated by addition of 0.5 ml of 40% trichloroacetic acid. After an additional 30 min the CO2 absorbed on the filter paper is counted in a standard scintillation cocktail. KI (apparent dissociation constant) and .tau.50 (half-life, at infinite concentration of inhibitor are calculated according to the method of Kitz and Wilson (J. Biol. Chem., 237, 3245 (1962)).
When tested according to the above-described procedure, representative compounds of Formula I gave the results shown in Table III below. The same abbreviations are used as in Table II and DFMDP is α-difluoromethyl-trans-β-dehydroputrescine.

Data set [3] concerns Ornithine decarboxylase (ODC). Nature of the data set: ODC inhibitory activity in vivo (ODC activity in ventral prostate and thymus of rats). Also noted: species or system rats (Sprague-Dawley). The method, then:
Male rats of the Sprague-Dawley strain (200-220 g body weight), purchased from Charles River, are given food and water ad libitum under a constant 12 hr light--12 hr dark lighting schedule. Drugs are injected intraperitoneally (dissolved in 0.9% saline) or are given by gavage (dissolved in water). Rats given saline or water serve as control. Five to six hours after drug administration, the animals are killed by decapitation and the ventral prostrate and thymus are excised rapidly and immediately processed. The tissues are homogenized with three volumes of 30 mM sodium phosphate buffer (pH 7.1) containing 0.1 mM EDTA, 0.25 M sucrose, 0.1 mM pyridoxal phosphate and 5 mM dithiothreitol. Ornithine decarboxylase activities are determined on a 1000 g supernatant of prostate homogenate and on a whole thymus homogenate, essentially as described by Ono et al. (Biochem. Biophys. Acta, 284, 285 (1972)).
When tested according to the above-described procedure, representative compounds of Formula I gave the results shown in Table II below and in which the following abbreviations are used: […]

A short description of data set [4]: Acute i.p. toxicity (LD50) in mice. The settings on record: mouse, in vivo, ip, acute i.p. injection. The source says:
The LD50 is acute i.p. injection was between 1 and 3 g/kg in mice.

The nature of data set [5]: in vivo. It counts as in vivo, mice. The note with it: 2% in drinking water or 200 mg/kg i.p. twice a day, after 10 days. The protocol:
When given in drinking water (2%) or injected i.p. (200 mg/kg twice a day) MFMDP induced the following toxic effects observed after 10 days of treatment: […]

For data set [6], the system named is ODC. Nature of the data set: ODC activity in the EMT6 tumor of treated mice. The class given is in vivo. The note with it: all treatments (2% and 0.2% in water, 200 mg/kg i.p.).
Data set [7] deals with L 1210 leukemia. The class given is in vivo, mice. The method, then: as §1
When injected i.p. (twice a day from day 1) at a dose of 50 mg/kg it increased by 20% the mean survival time of the mice.

The subject of data set [8] is carcinoma of the bladder, esophagus, lung, pancreas, colon, kidney, breast and prostate, oat cell carcinoma, adenocarcinoma, lymphoma, hepatoma, melanoma …. The note with it: intravenously once or twice a week; 65 treated patients; cited from earlier work.
Data set [9] can be described thus: Contragestational activity in mice (method of J. Fozard). It counts as in vivo. The settings on record: 80 mg/kg S.C. every six hours on the 8th day of gestation. The method, then:
The compounds of Formula I wherein Rc is --COR3 are also capable of interrupting embryogenesis in female mammals when administered systematically. Thus, the compounds are useful as contragestational agents in female mammals when it is desired to terminate early pregnancy. […] In general, an effective daily dose of the compounds of Formula I, wherein Rc is --COR3, for terminating pregnancy in warm-blooded mammals is from 10 mg/kg to 1 g/kg, preferably 10 to 100 mg/kg, administered after fertilisation during the period between Standard Stages 8-16 of gestation as defined by E. Wischi (See Tables 26-27, pages 82-92, Biology Data Book, Altman and Dittmer, Editors, Published by the Federation of American Societies for Experimental Biology, Washington, D.C., 1964). The period of treatment will vary with the species. In humans, the period of treatment will extend from the 6th-7th day of gestation of the 27th day.

`NC/C=C/C(N)CF` (centres unmarked) [MFMDP, 1-Fluoro-2,5-diamino-3-(E)-pentene]: the “inhibition of tumor growth” value in data set [1] (0.2% in water) worked out at 25%. Further, the “inhibition of tumor growth” value in data set [1] (200 mg/kg i.p. twice a day starting 4 days after inoculation, day 13) is on record as 50%. Further, in data set [2], the “Half-life (t1/2)” value was determined as 0.9 min; the “τ50 (half-life, at infinite concentration of inhibitor)” value is 0.2 min; the Ki worked out at 42 µM. In addition, the “ODC activity, thymus” value in [3] (25 mg/kg I.P.) is reported as 24 % CONTROL. The “ODC activity, ventral prostate” value in data set [3] (25 mg/kg gavage) was determined as 12 % CONTROL. Besides, in data set [4], the LD50 is 1000 to 3000 mg/kg. Moreover, in data set [5], the “decrease in body weight” value came to 25%, the “decrease in water intake” value is on record as 30-40% and the “drop in blood leukocytes” value came out at 50%. The mortality at 240 h in [5] (mouse, in vivo, read-out: animals dead) was determined as 15%. In addition, the “ODC activity in the tumor” value in data set [6] is “markedly inhibited in all cases”. Moreover, the “increase of mean survival time” value in data set [7] (50 mg/kg i.p. twice a day from day 1) is 20%. Also, the prolongation of survival entry in data set [7] (0.2% in water as sole drinking fluid from day 1 after inoculation) was “did not prolong the survival of the mice”. Moreover, in [7] (200 mg/kg i.p.), the increased survival entry is given as “no increased survival could be observed”. Moreover, in data set [7] (200 mg/kg i.p., L 1210 mice), the toxicity entry is reported as “toxic”.

With `NC/C=C/C(N)(C(=O)O)C(F)F` (centres unmarked) [DFMDO, 2-Difluoromethyl-2,5-diamino-3-(E)-penten-1-oic acid], in data set [2], the “Half-life (t1/2)” value worked out at 10.0 min; the “τ50 (half-life, at infinite concentration of inhibitor)” value is 2.5 min; the Ki was found to be 30 µM. In [3] (50 mg/kg gavage), the “ODC activity, ventral prostate” value was determined as 119 % CONTROL.

As for `NC/C=C/C(N)C(F)F` (centres unmarked) [DFMDP, 2,2-Difluoro-2,5-diamino-3-(E)-pentene], in data set [2], the “Half-life (t1/2)” value amounted to 5 min; the “τ50 (half-life, at infinite concentration of inhibitor)” value worked out at 0.7 min; the Ki was 60 µM.

Take `CC(C=NNC(=N)N)=NNC(=N)N` [MGBG, methylglyoxal bis(guanylhydrazone)]: in data set [8], the “complete disappearance of the disease” value is “complete disappearance of the disease in two of the 65 treated patients” and the “regression of the tumor” value is recorded as “measurable regression of the tumor in many of the patients treated”.

Consider `NC/C=C/C(N)(CF)C(=O)O` (centres unmarked) [MFMDO, 2-Fluoromethyl-2,5-diamino-3-(E)-penten-1-oic acid], for which the “inhibition of gestation (number of viable feti per gravid female vs controls)” value in data set [9] is on record as “inhibited gestation”. For the same compound, in data set [2], the “Half-life (t1/2)” value amounted to 3.1 min; the “τ50 (half-life, at infinite concentration of inhibitor)” value was 2.7 min; the Ki came to 2.8 µM. In data set [3] (50 mg/kg I.P.), the “ODC activity, ventral prostate” value was found to be 18 % CONTROL. Moreover, in [3] (50 mg/kg gavage), the “ODC activity, ventral prostate” value was 36 % CONTROL.

As a reminder, the LD50 is the dose expected to kill half of the subjects tested.
